Test results published in patent US11524966B1 (Valo Early Discovery, Inc., priority 2017, dated 2022).

Biological target: T1, USP28 (His-tagged USP28-FL-mammalian) (Homo sapiens, UniProt Q96RU2)
T1 construct: Expression of USP28 (1-1077)-TEV-6*His (pTT5 vector); made in house; host or cells: Expi293f cells (pTT5 vector)
T1 sequence (Q96RU2 1-1077): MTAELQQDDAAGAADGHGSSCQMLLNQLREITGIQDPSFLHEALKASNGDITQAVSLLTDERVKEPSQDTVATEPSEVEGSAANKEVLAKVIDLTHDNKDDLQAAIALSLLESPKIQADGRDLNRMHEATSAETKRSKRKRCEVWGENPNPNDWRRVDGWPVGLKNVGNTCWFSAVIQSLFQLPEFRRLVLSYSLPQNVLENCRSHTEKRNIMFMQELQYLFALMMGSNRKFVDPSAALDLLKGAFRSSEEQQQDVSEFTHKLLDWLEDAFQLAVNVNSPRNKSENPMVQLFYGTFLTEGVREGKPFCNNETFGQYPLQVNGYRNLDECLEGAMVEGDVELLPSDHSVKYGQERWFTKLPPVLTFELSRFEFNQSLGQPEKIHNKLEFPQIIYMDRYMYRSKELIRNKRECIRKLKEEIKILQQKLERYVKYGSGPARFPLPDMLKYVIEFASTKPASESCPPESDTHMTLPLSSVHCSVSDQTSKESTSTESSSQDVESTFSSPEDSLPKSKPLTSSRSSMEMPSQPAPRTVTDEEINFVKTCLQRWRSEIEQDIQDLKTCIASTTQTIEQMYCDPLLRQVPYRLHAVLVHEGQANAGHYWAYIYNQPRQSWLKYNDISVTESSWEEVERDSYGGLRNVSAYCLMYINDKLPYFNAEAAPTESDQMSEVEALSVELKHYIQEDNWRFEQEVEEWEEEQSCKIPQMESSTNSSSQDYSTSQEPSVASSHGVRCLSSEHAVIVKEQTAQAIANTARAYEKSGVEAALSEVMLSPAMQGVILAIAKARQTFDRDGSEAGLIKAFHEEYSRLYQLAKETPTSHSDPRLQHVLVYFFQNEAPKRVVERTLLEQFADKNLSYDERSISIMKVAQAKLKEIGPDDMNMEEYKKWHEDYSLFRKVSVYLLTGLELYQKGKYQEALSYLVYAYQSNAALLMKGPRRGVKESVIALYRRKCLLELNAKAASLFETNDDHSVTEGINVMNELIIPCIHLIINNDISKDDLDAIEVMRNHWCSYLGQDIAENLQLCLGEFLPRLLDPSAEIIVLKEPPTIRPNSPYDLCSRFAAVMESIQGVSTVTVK
Assay: Ubiquitin-Rhodamine 110 Assay for USP28 Activity, Example A-1(a)
Assay type: biochemical
Details: Ubiquitin-Rhodamine 110 assay, Example A-1(a); read-out: USP28 A-1(a) IC50 range
Summary of the method: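 Full-length His-tagged USP28 (1-1077, Expi293F-expressed; […]) was preincubated 30 min with compound (25 μM–1.3 nM, 10-point 3-fold) in 20 mM Tris-HCl pH 8.0, 3 mM BME, 0.03% BGG, 0.01% Triton X-100. Ub-Rh110 (25 nM) was then added for 45 min at room temperature, stopped with citric acid, and read by fluorescence (485/535 nm).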

SMILES | IC50
Cc1ccc2c(N)c(C(=O)N[C@H]3COc4cc(N5CC[C@@H]6CNC[C@@H]65)ccc4C3)sc2n1 [Example 165, N-[(3R)-7-[(3aR,6aR)-octahydropyrrolo[2,3-c]pyrrol-1-yl]-3,4-dihydro-2H-1-benzopyran-3-yl]-3-amino-6-methylthieno[2,3-b]pyridine-2-carboxamide] | 0.001 to 0.05 µM
Cc1ccc2c(N)c(C(=O)N[C@H]3COc4cc(N5CC[C@H]6CNC[C@H]65)ccc4C3)sc2n1 [Example 166, N-[(3R)-7-[(3aS,6aS)-octahydropyrrolo[2,3-c]pyrrol-1-yl]-3,4-dihydro-2H-1-benzopyran-3-yl]-3-amino-6-methylthieno[2,3-b]pyridine-2-carboxamide] | 0.001 to 0.05 µM
Cc1ccc2c(N)c(C(=O)N[C@H]3COc4cc(N5C[C@H](N)[C@H](C(F)F)C5)ccc4C3)sc2n1 [Example 167, 3-amino-N-[(3R)-7-[(3R,4R)-3-amino-4-(difluoromethyl)pyrrolidin-1-yl]-3,4-dihydro-2H-1-benzopyran-3-yl]-6-methylthieno[2,3-b]pyridine-2-carboxamide] | 0.001 to 0.05 µM
Cc1ccc2c(N)c(C(=O)N[C@H]3COc4cc(N5C[C@@H](N)[C@@H](C(F)F)C5)ccc4C3)sc2n1 [Example 168, 3-amino-N-[(3R)-7-[(3S,4S)-3-amino-4-(difluoromethyl)pyrrolidin-1-yl]-3,4-dihydro-2H-1-benzopyran-3-yl]-6-methylthieno[2,3-b]pyridine-2-carboxamide] | 0.001 to 0.05 µM
Cc1ccc2c(N)c(C(=O)N[C@H]3COc4cc(N5CCNCC5)cc(F)c4C3)oc2n1 [Example 169, 3-amino-N-[(3R)-5-fluoro-7-(piperazin-1-yl)-3,4-dihydro-2H-1-benzopyran-3-yl]-6-methylfuro[2,3-b]pyridine-2-carboxamide] | 0.2 to 2 µM
Cc1ccc2c(N)c(C(=O)N[C@H]3COc4cc(N5CC6CCC(C5)N6)cc(F)c4C3)oc2n1 [Example 170, 3-amino-N-[(3R)-7-{3,8-diazabicyclo[3.2.1]octan-3-yl}-5-fluoro-3,4-dihydro-2H-1-benzopyran-3-yl]-6-methylfuro[2,3-b]pyridine-2-carboxamide] | 0.2 to 2 µM
Cc1ccc2c(N)c(C(=O)N[C@H]3CCc4cc(N5CC6CCC(C5)N6)ccc4C3)oc2n1 [Example 171, 3-amino-N-[(2S)-6-{3,8-diazabicyclo[3.2.1]octan-3-yl]-1,2,3,4-tetrahydronaphthalen-2-yl]-6-methylfuro[2,3-b]pyridine-2-carboxamide] | > 2 µM
Cc1ccc2c(N)c(C(=O)N[C@H]3COc4c(F)c(N5CC6CCC(C5)N6)cc(F)c4C3)oc2n1 [Example 172, 3-amino-N-[(3R)-7-{3,8-diazabicyclo[3.2.1]octan-3-yl}-5,8-difluoro-3,4-dihydro-2H-1-benzopyran-3-yl]-6-methylfuro[2,3-b]pyridine-2-carboxamide] | 0.2 to 2 µM
Cc1ccc2c(N)c(C(=O)N[C@H]3COc4nc(N5CC6CCC(C5)N6)ccc4C3)sc2n1 [Example 173, 3-amino-N-[(3R)-7-{3,8-diazabicyclo[3.2.1]octan-3-yl]-2H,3H,4H-pyrano[2,3-b]pyridin-3-yl]-6-methylthieno[2,3-b]pyridine-2-carboxamide] | 0.05 to 0.2 µM
CO[C@H]1CN(c2cc(F)c3c(c2C#N)OC[C@H](NC(=O)c2sc4nc(C)cnc4c2N)C3)C[C@@H]1N [Example 174, 7-amino-N-[(3R)-7-[(3S,4S)-3-amino-4-methoxypyrrolidin-1-yl]-8-cyano-5-fluoro-3,4-dihydro-2H-1-benzopyran-3-yl]-3-methylthieno[2,3-b]pyrazine-6-carboxamide] | 0.2 to 2 µM
CO[C@H]1CN(c2cc(F)c3c(c2C#N)OC[C@H](NC(=O)c2sc4nc(C)ccc4c2N)C3)C[C@@H]1N [Example 175, 3-amino-N-[(3R)-7-[(3S,4S)-3-amino-4-methoxypyrrolidin-1-yl]-8-cyano-5-fluoro-3,4-dihydro-2H-1-benzopyran-3-yl]-6-methylthieno[2,3-b]pyridine-2-carboxamide] | 0.05 to 0.2 µM
CO[C@H]1CN(c2cc3c(cc2C#N)C[C@@H](NC(=O)c2sc4nc(C)cnc4c2N)CO3)C[C@@H]1N [Example 176, 7-amino-N-[(3R)-7-[(3S,4S)-3-amino-4-methoxypyrrolidin-1-yl]-6-cyano-3,4-dihydro-2H-1-benzopyran-3-yl]-3-methylthieno[2,3-b]pyrazine-6-carboxamide] | 0.001 to 0.05 µM
